The subject of the assay is SNB-19 viability, Alamar Blue fluorescence, 8-48 h. Put plainly: SNB-19 glioblastoma cell viability loss, dose response, HRAS target identification, Alamar Blue fluorescence, 8/24/48 h, dry powder (AID 720600). (In general: Resazurin is reduced to fluorescent resorufin, in cell work by metabolically active cells.)

For three compounds, AC50 results are on record in PubChem BioAssay AID720600 (Broad Institute, 2013).

Records with an inconclusive call do not appear.

Broadly, the AC50 is the concentration at which the activity in the assay is half-maximal. A higher AC50 goes with weaker potency. As for `COc1ccc(N(C(=O)CCl)C(C(=O)NCCc2ccccc2)c2cccs2)cc1Cl` (configuration not stated), the AC50 amounted to 77.1 nM (measured here: 8 h treatment), 112 nM (measured here: 24 h treatment) and 149 nM (measured here: 48 h treatment).

Take `CC(C)(C)OC(=O)NCCOCCOCCOc1ccc(N(C(=O)CCl)C(C(=O)NCCc2ccccc2)c2cccs2)cc1Cl` (configuration not stated): the AC50 by setting is: (measured here: 24 h treatment) 296 nM; (measured here: 48 h treatment) 353 nM.

`C#CCCCC(=O)NCCOCCOCCOc1ccc(N(C(=O)CCl)C(C(=O)NCCc2ccccc2)c2cccs2)cc1Cl` (configuration not stated) displayed an AC50 (measured here: 24 h treatment) of 946 nM and an AC50 (measured here: 48 h treatment) of 2780 nM.
